Source: the supplement of paper PMC11061612

Tests used:
Assay in all cases: Bliss excess, mean over the matrix (fraction); higher = more synergy
[1] = test system: KARPAS-422 (B-Cell Non-Hodgkin's Lymphoma)
How it was run: (§1)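 Cell lines in DMEM/F12 or RPMI with 10% FBS were plated in 1536-well plates, held 24 hours at 37°C, 5% CO2, then given two-drug dose matrices for 72 hours (DMSO typically 0.2%). Viability was read by CellTiter-Glo 2.0 luminescence and scaled as inhibition from 0 (vehicle wells) to 1 (blank wells). Combination Emax is the second-highest inhibition in the matrix; Bliss excess is observed combination effect minus expected EA + EB − EA·EB, EA and EB being single-agent effects.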

FU97 (Gastric Carcinoma) = test system: FU97 (Gastric Carcinoma)
How it was run: as §1

[2] = test system: JSC-1 (B-Cell Non-Hodgkin's Lymphoma)
How it was run: as §1

U-2-OS (Osteosarcoma) = test system: U-2-OS (Osteosarcoma)
How it was run: as §1

[3] = test system: A3-KAW (B-Cell Non-Hodgkin's Lymphoma)
How it was run: as §1

NCI-H2591 (Mesothelioma) = test system: NCI-H2591 (Mesothelioma)
How it was run: as §1

Structure (SMILES)	Bliss excess [1]	Bliss excess (FU97 (Gastric Carcinoma))	Bliss excess [2]	Bliss excess (U-2-OS (Osteosarcoma))	Bliss excess [3]	Bliss excess (NCI-H2591 (Mesothelioma))
C[C@@H](c1ccc2nccn2c1)n1nnc2ncc(-c3cnn(C)c3)nc21 [Savolitinib] + CC1(C)CCC(CN2CCN(c3ccc(C(=O)NS(=O)(=O)c4ccc(NCC5CCOCC5)c([N+](=O)[O-])c4)c(Oc4cnc5[nH]ccc5c4)c3)CC2)=C(c2ccc(Cl)cc2)C1 [Venetoclax] (first compound max 1 µM, 7x7, partner max 1 µM)	-0.0282	-0.0344	-0.0638	-0.0397	-0.023	-0.0802
CC1(C)CCC(CN2CCN(c3ccc(C(=O)NS(=O)(=O)c4ccc(NCC5CCOCC5)c([N+](=O)[O-])c4)c(Oc4cnc5[nH]ccc5c4)c3)CC2)=C(c2ccc(Cl)cc2)C1 [Venetoclax] + C=CCn1c(=O)c2cnc(Nc3ccc(N4CCN(C)CC4)cc3)nc2n1-c1cccc(C(C)(C)O)n1 [AZD1775] (first compound max 1 µM, partner max 1 µM)	0.0389	0.0519	-0.0281	-0.018	-0.0298	-0.0497
Cc1cc2ncnn2cc1Nc1ncc2c(n1)n(C1CCOCC1)c(=O)n2C [AZD7648] + C=CCn1c(=O)c2cnc(Nc3ccc(N4CCN(C)CC4)cc3)nc2n1-c1cccc(C(C)(C)O)n1 [AZD1775] (first compound max 10 µM, partner max 1 µM)	-0.187	0.0004	-0.0166	0.0232	0.0521	0.0043
NC1(C(=O)N[C@@H](CCO)c2ccc(Cl)cc2)CCN(c2ncnc3[nH]ccc23)CC1 [Capivasertib] + Cn1cnc2c(F)c(Nc3ccc(Br)cc3Cl)c(C(=O)NOCCO)cc21 [Selumetinib] (first compound max 10 µM, 7x7, partner max 10 µM)	0.0608	0.0653	0.0954	0.0009	0.0622	-0.0052
CN(CCO)CC[C@H](CSc1ccccc1)Nc1ccc(S(=O)(=O)NC(=O)c2ccc(N3CCC([C@@H](O)c4ccccc4-c4ccc(Cl)cc4)CC3)cc2)cc1S(=O)(=O)C(F)(F)F [AZD4320] + Cc1cc2ncnn2cc1Nc1ncc2c(n1)n(C1CCOCC1)c(=O)n2C [AZD7648] (first compound max 1 µM, 7x7, partner max 10 µM)	-0.0071	-0.0375	-0.0113	-0.0294	0.0296	-0.0445
Cc1cc2ncnn2cc1Nc1ncc2c(n1)n(C1CCOCC1)c(=O)n2C [AZD7648] + O=C(c1cc(Cc2n[nH]c(=O)c3ccccc23)ccc1F)N1CCN(C(=O)C2CC2)CC1 [Olaparib] (first compound max 10 µM, 7x7, partner max 10 µM)	-0.0358	-0.0879	-0.0148	-0.0136	-0.0107	-0.0403
Cn1cnc2c(F)c(Nc3ccc(Br)cc3Cl)c(C(=O)NOCCO)cc21 [Selumetinib] + CCN(CCO)CCCOc1ccc2c(Nc3cc(CC(=O)Nc4cccc(F)c4)[nH]n3)ncnc2c1 [AZD2811] (first compound max 10 µM, 7x7, partner max 1 µM)	0.0206	-0.0013	0.203	-0.0111	0.165	-0.0459
COc1cc2ncnc(Nc3ccc(F)c(Cl)c3)c2cc1OCCCN1CCOCC1 [Gefitinib] + CC(C)n1c(=O)n(C)c2cnc3cc(F)c(-c4ccc(OCCCN5CCCCC5)nc4)cc3c21 [AZD1390] (first compound max 10 µM, 7x7, partner max 0.3 µM)	-0.0363	-0.0177	-0.0911	-0.0496	-0.0098	-0.0801
Cc1nc(Nc2ncc(C(=O)Nc3c(C)cccc3Cl)s2)cc(N2CCN(CCO)CC2)n1 [Dasatinib] + CC(=O)Nc1cccc(-n2c(=O)n(C3CC3)c(=O)c3c(Nc4ccc(I)cc4F)n(C)c(=O)c(C)c32)c1 [Trametinib] (first compound max 2 µM, 7x7, partner max 1 µM)	-0.0371	0.0039	-0.117	-0.0411	0.0863	-0.0757
CCN(CCO)CCCOc1ccc2c(Nc3cc(CC(=O)Nc4cccc(F)c4)[nH]n3)ncnc2c1 [AZD2811] + C=CCn1c(=O)c2cnc(Nc3ccc(N4CCN(C)CC4)cc3)nc2n1-c1cccc(C(C)(C)O)n1 [AZD1775] (first compound max 1 µM, partner max 1 µM)	-0.0349	-0.0289	-0.0038	-0.0039	0.0539	0.0107
Cc1cc2ncnn2cc1Nc1ncc2c(n1)n(C1CCOCC1)c(=O)n2C [AZD7648] + CCN(CCO)CCCOc1ccc2c(Nc3cc(CC(=O)Nc4cccc(F)c4)[nH]n3)ncnc2c1 [AZD2811] (first compound max 10 µM, 7x7, partner max 1 µM)	-0.0417	-0.0667	0.0813	0.0294	0.0762	0.0506
CC1(C)CCC(CN2CCN(c3ccc(C(=O)NS(=O)(=O)c4ccc(NCC5CCOCC5)c([N+](=O)[O-])c4)c(Oc4cnc5[nH]ccc5c4)c3)CC2)=C(c2ccc(Cl)cc2)C1 [Venetoclax] + CCN(CCO)CCCOc1ccc2c(Nc3cc(CC(=O)Nc4cccc(F)c4)[nH]n3)ncnc2c1 [AZD2811] (first compound max 1 µM, 7x7, partner max 1 µM)	0.242	0.024	0.0485	-0.0188	-0.0238	-0.009
CC(=O)c1c(C)c2cnc(Nc3ccc(N4CCNCC4)cn3)nc2n(C2CCCC2)c1=O [Palbociclib] + CC1(C)CCC(CN2CCN(c3ccc(C(=O)NS(=O)(=O)c4ccc(NCC5CCOCC5)c([N+](=O)[O-])c4)c(Oc4cnc5[nH]ccc5c4)c3)CC2)=C(c2ccc(Cl)cc2)C1 [Venetoclax] (first compound max 10 µM, 7x7, partner max 1 µM)	0.0434	-0.0281	-0.0127	-0.0275	-0.0332	0.0045
CN(C)CCCOc1ccc(-c2ccc3ncc4c(c3c2)n(C2CCOCC2)c(=O)n4C)cn1 [AZD0156] + C=CCn1c(=O)c2cnc(Nc3ccc(N4CCN(C)CC4)cc3)nc2n1-c1cccc(C(C)(C)O)n1 [AZD1775] (first compound max 1 µM, partner max 1 µM)	-0.0476	-0.0101	-0.0102	0.0036	0.0707	-0.0306
COc1nnc2ccc(N3CCC(c4ccc(OCCN5CCN(C)C(=O)[C@H]5C)cc4)CC3)nn12 [AZD5153] + C=CCn1c(=O)c2cnc(Nc3ccc(N4CCN(C)CC4)cc3)nc2n1-c1cccc(C(C)(C)O)n1 [AZD1775] (first compound max 1 µM, partner max 1 µM)	-0.108	0.0072	-0.123	-0.0304	-0.0093	0.0145
COc1cccc(OCCCN)c1-c1cc(Nc2cnc(C#N)cn2)n[nH]1 [Prexasertib] + CCc1c2c(nc3ccc(O)cc13)-c1cc3c(c(=O)n1C2)COC(=O)[C@]3(O)CC [SN-38] (first compound max 1 µM, 7x7, partner max 0.3 µM)	0.0037	-0.032	-0.0739	-0.0551	0.0247	-0.0353
C=CCn1c(=O)c2cnc(Nc3ccc(N4CCN(C)CC4)cc3)nc2n1-c1cccc(C(C)(C)O)n1 [AZD1775] + O=C(c1cc(Cc2n[nH]c(=O)c3ccccc23)ccc1F)N1CCN(C(=O)C2CC2)CC1 [Olaparib] (first compound max 1 µM, partner max 10 µM)	-0.0648	-0.148	-0.0434	-0.0258	0.0183	-0.053
Cc1c2c(nn1C)CSCc1cc(n(C)n1)CSc1cc(c3ccccc3c1)OCCCc1c(C(=O)O)n(C)c3c-2c(Cl)ccc13 [AZD5991] + C=CCn1c(=O)c2cnc(Nc3ccc(N4CCN(C)CC4)cc3)nc2n1-c1cccc(C(C)(C)O)n1 [AZD1775] (first compound max 1 µM, partner max 1 µM)	-0.0192	0.0503	-0.0042	0.0183	0.0126	0.0396
CC1(C)CCC(CN2CCN(c3ccc(C(=O)NS(=O)(=O)c4ccc(NCC5CCOCC5)c([N+](=O)[O-])c4)c(Oc4cnc5[nH]ccc5c4)c3)CC2)=C(c2ccc(Cl)cc2)C1 [Venetoclax] + CN(C)CCCOc1ccc(-c2ccc3ncc4c(c3c2)n(C2CCOCC2)c(=O)n4C)cn1 [AZD0156] (first compound max 1 µM, 7x7, partner max 1 µM)	0.0398	-0.0293	0.0102	-0.0107	-0.0485	-0.0202
COc1nnc2ccc(N3CCC(c4ccc(OCCN5CCN(C)C(=O)[C@H]5C)cc4)CC3)nn12 [AZD5153] + C[C@@H]1COCCN1C2=NC(=NC(=C2)C3(CC3)[S@](=N)(=O)C)C4=C5C=CNC5=NC=C4 [AZD6738] (first compound max 1 µM, 7x7, partner max 10 µM)	-0.0759	0.0043	-0.067	0.0409	-0.006	0.0634
C=CCn1c(=O)c2cnc(Nc3ccc(N4CCN(C)CC4)cc3)nc2n1-c1cccc(C(C)(C)O)n1 [AZD1775] + C[C@@H]1COCCN1C2=NC(=NC(=C2)C3(CC3)[S@](=N)(=O)C)C4=C5C=CNC5=NC=C4 [AZD6738] (first compound max 1 µM, partner max 10 µM)	-0.0445	-0.0414	0.0409	0.0364	0.0285	-0.0355
CN(CCO)CC[C@H](CSc1ccccc1)Nc1ccc(S(=O)(=O)NC(=O)c2ccc(N3CCC([C@@H](O)c4ccccc4-c4ccc(Cl)cc4)CC3)cc2)cc1S(=O)(=O)C(F)(F)F [AZD4320] + CN(C)CCCOc1ccc(-c2ccc3ncc4c(c3c2)n(C2CCOCC2)c(=O)n4C)cn1 [AZD0156] (first compound max 1 µM, 7x7, partner max 1 µM)	0.0093	-0.0303	-0.0076	-0.0215	-0.0197	-0.0508
CC(=O)c1c(C)c2cnc(Nc3ccc(N4CCNCC4)cn3)nc2n(C2CCCC2)c1=O [Palbociclib] + Cn1cnc2c(F)c(Nc3ccc(Br)cc3Cl)c(C(=O)NOCCO)cc21 [Selumetinib] (first compound max 10 µM, 7x7, partner max 10 µM)	0.062	0.0707	0.0842	-0.0134	0.182	-0.0161
CC1(C)CCC(CN2CCN(c3ccc(C(=O)NS(=O)(=O)c4ccc(NCC5CCOCC5)c([N+](=O)[O-])c4)c(Oc4cnc5[nH]ccc5c4)c3)CC2)=C(c2ccc(Cl)cc2)C1 [Venetoclax] + Cn1cnc2c(F)c(Nc3ccc(Br)cc3Cl)c(C(=O)NOCCO)cc21 [Selumetinib] (first compound max 1 µM, 7x7, partner max 3 µM)	-0.0238	-0.0378	-0.0184	-0.0309	0.0127	-0.0169
